Drawing on patent US20230031406A1, “COMPOUNDS AND COMPOSITIONS FOR TREATING CONDITIONS ASSOCIATED WITH NLRP ACTIVITY” (Novartis AG, priority 2018, published 2023), this text covers IC50 for 19 compounds.

Like-named read-outs stand apart in the source and are kept apart here.

The subject of the test is PMA-differentiated THP-1 cells. Kind of test: IL-1β production in PMA-differentiated THP-1 cells stimulated with gramicidin (hTHP-1 assay containing 2% fetal bovine serum; Procedures 1 and 2). The format is cell-based, human. To be noted: 2% fetal bovine serum. A digest of the protocol:
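IL-1β release from PMA-differentiated THP-1 macrophage-like cells was triggered by 5 μM gramicidin for 2 h after 1 h compound exposure, then measured by HTRF.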

The mark [1] stands for this setting: Table B1, class symbols, read-out: Average IC50 of compounds in hTHP-1 assay: hTHP-1 IC50.
Setting [2] is: Homo sapiens, THP-1, Table B2, class symbols, read-out: hTHP-1 IC50.
[3] abbreviates: Homo sapiens, THP-1, Table B1, class symbols, read-out: Average IC50 of compounds in hTHP-1 assay: hTHP-1 IC50.
Where [4] appears, read: Homo sapiens, THP-1, Table B3, hTHP-1 assay, class symbols, read-out: IC50.

For the compound `CC1CCc2c1nc1c(c2NC(=O)N=S(N)(=O)c2ccn(C(F)F)n2)CCC1` (single isomer, unassigned) [Compound 184b, (S,S) or (S,R)-1-(difluoro-methyl)-N′-((3-methyl-1,2,3,5,67-hexahydro-dicyclopenta[b,e]pyridin-8-yl)carbamoyl)-1H-pyrazole-3-sulfonimidamide], the IC50 (in general, the point on the concentration scale where inhibition reaches its midpoint) under setting [1] is 5000 to 30000 nM.

As for `CC(C)n1nc(S(N)(=O)=NC(=O)Nc2c3c(nc4c2CCC4(C)C)CCC3)cc1CO` (stereo not shown) [Compound 652, N′-((3,3-dimethyl-1,2,3,5,6,7-hexahydrodicyclopenta[b,e]pyridin-8-yl)carbamoyl)-5-(hydroxymethyl)-1-isopropyl-1H-pyrazole-3-sulfonimidamide], the half-maximal inhibitory concentration (IC50) under setting [2] is 1000 to 5000 nM.

Regarding `Cc1c(C(F)(F)F)nc2c(c1NC(=O)N=S(N)(=O)c1nn(-c3ccccc3)cc1F)CCC2` (single isomer, unassigned) [Example 784, (S) or (R)-4-fluoro-N′-((3-methyl-2-(trifluoromethyl)-6,7-dihydro-5H-cyclopenta [b]pyridin-4-yl)carbamoyl)-1-phenyl-1H-pyrazole-3-sulfonimidamide], the 50% inhibitory concentration (IC50) (Table B4, class symbols, read-out: hTHP-1 IC50) is 5000 to 30000 nM.

Take `CC(C)(O)c1sc(S(N)(=O)=NC(=O)Nc2c3c(nc4c2CCC4)CCC3)cc1Cl` (single isomer, unassigned) [Compound 688a, (R) or (S)-4-Chloro-N′-((1,2,3,5,6,7-hexahydrodicyclopenta [b,e]pyridin-8-yl)carbamoyl)-5-(2-hydroxypropan-2-yl)thiophene-2-sulfonimidamide]: the IC50 (Table B2, class symbols, read-out: hTHP-1 IC50) lay in the range of 200 to 1000 nM. As to `CC(C)(O)c1cc(F)c(S(N)(=O)=NC(=O)Nc2c3c(nc(C(F)(F)F)c2C2CC2)CCC3)s1` (single isomer, unassigned) [Example 660, (S) or (R)-N′-((3-cyclopropyl-2-(trifluoromethyl)-6,7-dihydro-5H-cyclopenta[b]pyridin-4-yl)carbamoyl)-3-fluoro-5-(2-hydroxypropan-2-yl) thiophene-2-sulfonimidamide], the 50% inhibitory concentration (IC50) (Table B3, hTHP-1 assay, class symbols, read-out: IC50) fell in the range of 5000 to 30000 nM. As to `CC(C)(O)c1ncc(S(N)(=O)=NC(=O)Nc2c3c(nc4c2CCC4(C)C)CCC3)s1` (single isomer, unassigned) [Compound 153b, (R) or (S)-N′-((3,3-dimethyl-1,2,3,5,6,7-hexahydro-dicyclopenta[b,e]pyridin-8-yl)carbamoyl)-2-(2-hydroxypropan-2-yl)thiazole-5-sulfonimidamide], the IC50 under setting [1] lay in the range of 40 to 200 nM. On to `CCc1cc(F)c(S(N)(=O)=NC(=O)Nc2c3c(nc4c2CC[C@H]4C)CCC3)s1` (stereo partly shown) [Compound 720c], for which the IC50 under setting [2] was 200 to 1000 nM. As to `CC(C)(O)c1ccc(S(N)(=O)=NC(=O)Nc2c3c(nc4c2CCC4)CCC3)s1` (single isomer, unassigned) [Compound 149a, (R) or (S)-N′-((1,2,3,5,6,7-hexahydrodicyclo-penta[b,e]pyridin-8-yl)carbamoyl)-5-(2-hydroxypropan-2-yl)thiophene-2-sulfonimidamide], the half-inhibitory concentration (IC50) under setting [3] was 200 to 1000 nM. As for `Cc1nc2c(c(NC(=O)N=S(N)(=O)c3ncc(C(C)(C)O)s3)c1C1CC1)CCC2` (single isomer, unassigned) [Compound 618b, (R) or (S)-N′-((3-cyclopropyl-2-methyl-6,7-dihydro-5H-cyclopenta[b]pyridin-4-yl)carbamoyl)-5-(2-hydroxypropan-2-yl)thiazole-2-sulfonimidamide], the half-inhibitory concentration (IC50) under setting [2] was in the range of 200 to 1000 nM.

For `CC(C)(O)c1cc(S(N)(=O)=NC(=O)Nc2c3c(nc4c2CCC4(C)C)CCC3)nn1-c1ccccc1` (single isomer, unassigned) [Compound 663a, (S) or (R)-N′-((3,3-dimethyl-1,2,3,5,6,7-hexahydrodicyclopenta [b,e]pyridin-8-yl)carbamoyl)-5-(2-hydroxypropan-2-yl)-1-phenyl-1H-pyrazole-3-sulfonimidamide], for the setting “Homo sapiens, THP-1, Table B2, numeric bounds, read-out: hTHP-1 IC50”, the concentration for half-maximal inhibition (IC50) is more than 30000 nM. On to `CC(C)c1csc(S(N)(=O)=NC(=O)Nc2c3c(nc4c2CCC4C)C(C)CC3)c1` (stereo not shown) [Compound 123, N′-((3,5-dimethyl-1,2,3,5,6,7-hexahydrodicyclopenta[b,e]pyridin-8-yl)carbamoyl)-4-isopropylthiophene-2-sulfonimidamide], for which the IC50 under setting [3] lay within 1000 to 5000 nM.

Take `NS(=O)(=NC(=O)Nc1c2c(nc3c1CCC3)CCC2)c1nn(C(F)F)cc1F` (single isomer, unassigned) [Example 760, (S) or (R)-1-(difluoromethyl)-4-fluoro-N′-((1,2,3,5,6,7-hexahydrodicyclopenta[b,e]pyridin-8-yl)carbamoyl)-1H-pyrazole-3-sulfonimidamide]: the IC50 (Homo sapiens, THP-1, Table B4, numeric bounds, read-out: hTHP-1 IC50) was more than 30000 nM. As to `CC(C)(O)c1nc(CO)c(S(N)(=O)=NC(=O)Nc2c3c(nc4c2CCC4)CCC3)s1` (stereo not shown) [Compound 150, N′-((1,2,3,5,6,7-hexahydrodicyclopenta[b,e]pyridin-8-yl)carbamoyl)-4-(hydroxymethyl)-2-(2-hydroxypropan-2-yl)thiazole-3-sulfonimidamide], under setting [3], the IC50 was 1000 to 5000 nM. In the case of `CCc1c(C(F)(F)F)nc2c(c1NC(=O)N=S(N)(=O)c1sc(C(C)(C)O)cc1F)CCC2` (stereo not shown) [Compound 611, N′-((3-ethyl-2-(trifluoromethyl)-6,7-dihydro-5H-cyclopenta[b]pyridin-4-yl)carbamoyl)-3-fluoro-5-(2-hydroxypropan-2-yl)thiophene-2-sulfonimidamide], the IC50 under setting [2] was 200 to 1000 nM. In the case of `CC(C)n1cc(CO)c(S(N)(=O)=NC(=O)Nc2c3c(nc4c2CCC4(C)C)CCC3)n1` (single isomer, unassigned) [Compound 682b, (R) or (S)-N′-((3,3-dimethyl-1,2,3,5,6,7-hexahydrodicyclopenta [b,e]pyridin-8-yl)carbamoyl)-4-(hydroxymethyl)-1-isopropyl-1H-pyrazole-3-sulfonimidamide], under setting [2], the IC50 is 1000 to 5000 nM. As for `CC(C)(CO)c1ncc(S(N)(=O)=NC(=O)Nc2c3c(nc4c2CCC4(C)C)CCC3)s1` (stereo not shown) [Example 605, N′-((3,3-dimethyl-1,2,3,5,6,7-hexahydrodicyclopenta[b,e]pyridin-8-yl)carbamoyl)-2-(1-hydroxy-2-methylpropan-2-yl)thiazole-5-sulfonimidamide], the half-maximal inhibitory concentration (IC50) under setting [4] was in the range of 200 to 1000 nM.

As to `Cc1sc(S(N)(=O)=NC(=O)Nc2c3c(nc4c2CCC4C)CCC3)nc1C(C)(C)O` (single isomer, unassigned) [Compound 104b, (S,R/S) or (R,R/S)-4-(2-hydroxypropan-2-yl)-5-methyl-N′-((3-methyl-1,2,3,5,6,7-hexahydrodicyclo-penta[b,e]pyridin-8-yl)carbamoyl)thiazole-2-sulfonimidamide], under setting [1], the 50% inhibitory concentration (IC50) fell in the range of 5000 to 30000 nM. On to `C[C@@](O)(CO)c1cc(F)c(S(N)(=O)=NC(=O)Nc2c3c(nc4c2CCC42CC2)CCC3)s1` (stereo partly drawn) [Example 607, 5-((R)-1,2-dihydroxypropan-2-yl)-3-fluoro-N′-((1′,5′,6′,7′-tetrahydro-2′H-spiro[cyclopropane-1,3′-dicyclopenta[b,e]pyridin]-8′-yl)carbamoyl)thiophene-2-sulfonimidamide], for which the half-inhibitory concentration (IC50) under setting [4] is 200 to 1000 nM.

Take `C[C@H]1CCc2c1nc1c(c2NC(=O)N=[S@@](N)(=O)c2cnc(C(C)(C)O)s2)CCC1` [Compound 162ba, (R,S)-2-(2-hydroxypropan-2-yl)-N′-((3-methyl-1,2,3,5,6,7-hexahydrodicyclo-penta[b,e]pyridin-8-yl)carbamoyl)thiazole-5-sulfonimidamide]: the IC50 under setting [1] fell in the range of 200 to 1000 nM.
